Key:
[1] = target: Tyrosine-protein kinase Lyn (Homo sapiens) (UniProt P07948); conditions: Compound concentration 1000.0 nM
[2] = target: Tyrosine-protein kinase Mer (Homo sapiens) (UniProt Q12866); conditions: Compound concentration 1000.0 nM
[3] = target: Atypical kinase COQ8A, mitochondrial (Homo sapiens) (UniProt Q8NI60); conditions: Compound concentration 1000.0 nM
[4] = target: Phosphatidylinositol 4,5-bisphosphate 3-kinase catalytic subunit gamma isoform (Homo sapiens) (UniProt P48736); conditions: Compound concentration 1000.0 nM
[5] = target: Receptor-type tyrosine-protein kinase FLT3 (Homo sapiens) (UniProt P36888); conditions: Compound concentration 1000.0 nM
[6] = tested on: Receptor-type tyrosine-protein kinase FLT3 (Homo sapiens), P36888 [R834Q]; conditions: Compound concentration 1000.0 nM
[7] = tested on: Epidermal growth factor receptor (Homo sapiens), P00533 [G719S]; conditions: Compound concentration 1000.0 nM
[8] = target: Mitogen-activated protein kinase kinase kinase 19 (Homo sapiens) (UniProt Q56UN5); conditions: Compound concentration 1000.0 nM
[9] = target: Protein-tyrosine kinase 6 (Homo sapiens) (UniProt Q13882); conditions: Compound concentration 1000.0 nM
Chain of Protein-tyrosine kinase 6 (Homo sapiens) (Q13882 whole entry, looked up): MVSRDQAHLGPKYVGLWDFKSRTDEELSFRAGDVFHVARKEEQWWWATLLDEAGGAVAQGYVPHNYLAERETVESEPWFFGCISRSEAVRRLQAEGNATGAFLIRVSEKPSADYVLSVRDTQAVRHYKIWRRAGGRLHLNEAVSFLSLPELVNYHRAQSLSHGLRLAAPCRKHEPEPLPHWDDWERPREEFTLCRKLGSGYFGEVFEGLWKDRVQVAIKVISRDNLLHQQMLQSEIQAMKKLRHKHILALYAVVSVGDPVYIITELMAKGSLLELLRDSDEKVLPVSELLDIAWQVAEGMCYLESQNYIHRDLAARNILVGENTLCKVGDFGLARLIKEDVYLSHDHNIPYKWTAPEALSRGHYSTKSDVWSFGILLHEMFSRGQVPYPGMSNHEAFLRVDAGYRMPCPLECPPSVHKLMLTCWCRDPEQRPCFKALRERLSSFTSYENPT

[10] = target: Tyrosine-protein kinase Fgr (Homo sapiens) (UniProt P09769); conditions: Compound concentration 1000.0 nM
[11] = target: Wee1-like protein kinase 2 (Homo sapiens) (UniProt P0C1S8); conditions: Compound concentration 1000.0 nM
[12] = tested on: Phosphatidylinositol 4,5-bisphosphate 3-kinase catalytic subunit alpha isoform (Homo sapiens), P42336 [Q546K]; conditions: Compound concentration 1000.0 nM
Chain of Phosphatidylinositol 4,5-bisphosphate 3-kinase catalytic subunit alpha isoform (Homo sapiens), P42336 [Q546K] (P42336 whole entry Q546K, canonical isoform): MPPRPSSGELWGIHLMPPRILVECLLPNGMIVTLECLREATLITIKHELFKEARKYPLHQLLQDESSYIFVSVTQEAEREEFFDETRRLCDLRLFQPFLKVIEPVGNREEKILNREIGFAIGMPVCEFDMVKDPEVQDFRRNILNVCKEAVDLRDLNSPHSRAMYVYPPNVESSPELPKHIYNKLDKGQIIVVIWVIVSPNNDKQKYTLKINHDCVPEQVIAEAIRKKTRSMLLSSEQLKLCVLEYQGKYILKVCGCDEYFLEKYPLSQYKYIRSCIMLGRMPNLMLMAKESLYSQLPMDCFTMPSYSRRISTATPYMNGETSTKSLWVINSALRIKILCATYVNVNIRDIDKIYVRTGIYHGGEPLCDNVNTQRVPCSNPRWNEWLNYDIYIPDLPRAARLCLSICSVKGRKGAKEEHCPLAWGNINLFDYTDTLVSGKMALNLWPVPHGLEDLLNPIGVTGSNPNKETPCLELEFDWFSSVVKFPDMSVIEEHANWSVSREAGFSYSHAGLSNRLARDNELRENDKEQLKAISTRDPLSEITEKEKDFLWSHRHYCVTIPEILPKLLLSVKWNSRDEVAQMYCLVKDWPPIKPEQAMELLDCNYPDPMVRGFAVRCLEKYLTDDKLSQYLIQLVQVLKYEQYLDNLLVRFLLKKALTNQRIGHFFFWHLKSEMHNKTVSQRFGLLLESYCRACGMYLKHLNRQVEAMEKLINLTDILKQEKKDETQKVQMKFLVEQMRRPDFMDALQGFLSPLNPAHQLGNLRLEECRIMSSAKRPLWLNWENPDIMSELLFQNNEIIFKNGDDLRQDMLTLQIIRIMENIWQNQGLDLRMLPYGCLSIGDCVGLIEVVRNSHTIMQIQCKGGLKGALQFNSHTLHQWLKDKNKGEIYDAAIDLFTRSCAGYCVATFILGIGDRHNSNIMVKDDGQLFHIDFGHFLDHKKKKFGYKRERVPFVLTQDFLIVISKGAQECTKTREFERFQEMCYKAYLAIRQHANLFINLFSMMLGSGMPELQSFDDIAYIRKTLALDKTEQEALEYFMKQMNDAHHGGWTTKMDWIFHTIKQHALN

[13] = target: Cyclin-dependent kinase 11A (Homo sapiens) (UniProt Q9UQ88); conditions: Compound concentration 1000.0 nM
[14] = target: Citron Rho-interacting kinase (Homo sapiens) (UniProt O14578); conditions: Compound concentration 1000.0 nM
[15] = target: NT-3 growth factor receptor (Homo sapiens) (UniProt Q16288); conditions: Compound concentration 1000.0 nM
Chain of NT-3 growth factor receptor (Homo sapiens) (Q16288 32-839 limits assumed): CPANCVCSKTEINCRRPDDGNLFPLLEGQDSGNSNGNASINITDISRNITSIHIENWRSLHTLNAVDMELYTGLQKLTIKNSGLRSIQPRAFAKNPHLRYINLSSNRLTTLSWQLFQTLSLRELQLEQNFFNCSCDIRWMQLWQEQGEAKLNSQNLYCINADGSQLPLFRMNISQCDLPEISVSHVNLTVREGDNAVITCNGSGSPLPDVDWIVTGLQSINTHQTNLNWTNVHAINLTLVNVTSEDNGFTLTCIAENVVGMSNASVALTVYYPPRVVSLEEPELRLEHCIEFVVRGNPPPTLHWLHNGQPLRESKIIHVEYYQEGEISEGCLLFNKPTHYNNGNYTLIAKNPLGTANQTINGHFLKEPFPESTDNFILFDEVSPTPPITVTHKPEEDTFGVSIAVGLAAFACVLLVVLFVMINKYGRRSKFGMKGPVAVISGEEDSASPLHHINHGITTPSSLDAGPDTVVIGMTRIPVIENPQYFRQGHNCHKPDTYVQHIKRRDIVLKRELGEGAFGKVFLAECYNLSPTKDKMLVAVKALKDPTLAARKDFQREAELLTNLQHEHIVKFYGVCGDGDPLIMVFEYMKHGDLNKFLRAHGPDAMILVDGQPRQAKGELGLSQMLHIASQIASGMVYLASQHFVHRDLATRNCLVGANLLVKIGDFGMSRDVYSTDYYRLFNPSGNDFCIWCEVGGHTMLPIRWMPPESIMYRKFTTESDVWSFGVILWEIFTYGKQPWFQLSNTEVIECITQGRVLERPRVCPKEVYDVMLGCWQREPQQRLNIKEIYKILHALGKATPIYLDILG

[16] = target: Serine/threonine-protein kinase MARK1 (Homo sapiens) (UniProt Q9P0L2); conditions: Compound concentration 1000.0 nM
[17] = target: Dual specificity protein kinase CLK3 (Homo sapiens) (UniProt P49761); conditions: Compound concentration 1000.0 nM
[18] = target: Mitogen-activated protein kinase 10 (Homo sapiens) (UniProt P53779); conditions: Compound concentration 1000.0 nM
Chain of Mitogen-activated protein kinase 10 (Homo sapiens) (P53779 whole entry): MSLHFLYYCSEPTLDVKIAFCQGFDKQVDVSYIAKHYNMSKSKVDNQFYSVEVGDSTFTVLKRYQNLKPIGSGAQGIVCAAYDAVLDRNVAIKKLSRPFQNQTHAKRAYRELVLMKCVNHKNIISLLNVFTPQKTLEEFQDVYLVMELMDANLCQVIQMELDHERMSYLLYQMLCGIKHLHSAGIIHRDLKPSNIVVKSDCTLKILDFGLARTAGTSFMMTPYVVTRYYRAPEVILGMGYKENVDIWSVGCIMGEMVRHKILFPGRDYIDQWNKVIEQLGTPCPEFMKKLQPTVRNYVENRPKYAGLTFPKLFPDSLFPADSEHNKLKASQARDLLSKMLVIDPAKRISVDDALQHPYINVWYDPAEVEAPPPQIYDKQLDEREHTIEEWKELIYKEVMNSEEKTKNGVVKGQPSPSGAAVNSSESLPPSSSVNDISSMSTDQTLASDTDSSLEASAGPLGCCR

[19] = target: RAC-gamma serine/threonine-protein kinase (Homo sapiens) (UniProt Q9Y243); conditions: Compound concentration 1000.0 nM
[20] = target: cAMP-dependent protein kinase catalytic subunit beta (Homo sapiens) (UniProt P22694); conditions: Compound concentration 1000.0 nM
[21] = target: Calcium/calmodulin-dependent protein kinase type II subunit delta (Homo sapiens) (UniProt Q13557); conditions: Compound concentration 1000.0 nM
Chain of Calcium/calmodulin-dependent protein kinase type II subunit delta (Homo sapiens) (Q13557 whole entry): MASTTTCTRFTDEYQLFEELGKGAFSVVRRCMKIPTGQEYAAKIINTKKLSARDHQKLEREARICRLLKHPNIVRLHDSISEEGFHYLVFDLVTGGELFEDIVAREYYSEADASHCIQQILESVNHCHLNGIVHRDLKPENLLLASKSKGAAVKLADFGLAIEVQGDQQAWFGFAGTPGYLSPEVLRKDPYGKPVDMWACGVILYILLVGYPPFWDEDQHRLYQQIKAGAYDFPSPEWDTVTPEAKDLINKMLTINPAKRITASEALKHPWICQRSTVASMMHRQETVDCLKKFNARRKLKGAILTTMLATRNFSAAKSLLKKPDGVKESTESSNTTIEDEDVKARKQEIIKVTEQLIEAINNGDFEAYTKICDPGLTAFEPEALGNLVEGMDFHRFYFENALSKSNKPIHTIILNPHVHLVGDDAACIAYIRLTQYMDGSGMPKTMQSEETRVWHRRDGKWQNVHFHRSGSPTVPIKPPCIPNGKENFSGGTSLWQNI

[22] = target: Serine/threonine-protein kinase 10 (Homo sapiens) (UniProt O94804); conditions: Compound concentration 1000.0 nM
[23] = target: Tyrosine-protein kinase SYK (Homo sapiens) (UniProt P43405); conditions: Compound concentration 1000.0 nM
[24] = tested on: Epidermal growth factor receptor (Homo sapiens), P00533 [L858R]; conditions: Compound concentration 1000.0 nM
[25] = tested on: Proto-oncogene tyrosine-protein kinase receptor Ret (Homo sapiens), P07949 [V804L]; conditions: Compound concentration 1000.0 nM
[26] = target: Ribosomal protein S6 kinase alpha-4 (Homo sapiens) (UniProt O75676); conditions: Compound concentration 1000.0 nM
[27] = target: Rhodopsin kinase GRK7 (Homo sapiens) (UniProt Q8WTQ7); conditions: Compound concentration 1000.0 nM
[28] = target: Dual specificity tyrosine-phosphorylation-regulated kinase 2 (Homo sapiens) (UniProt Q92630); conditions: Compound concentration 1000.0 nM
[29] = target: Receptor-type tyrosine-protein kinase FLT3 (Homo sapiens) (UniProt P36888); conditions: Compound concentration 1000.0 nM; remark: listed apart in the source
[30] = target: Hormonally up-regulated neu tumor-associated kinase (Homo sapiens) (UniProt P57058); conditions: Compound concentration 1000.0 nM
[31] = target: Calcium/calmodulin-dependent protein kinase type 1B (Homo sapiens) (UniProt Q6P2M8); conditions: Compound concentration 1000.0 nM
[32] = target: Serine/threonine-protein kinase PAK 6 (Homo sapiens) (UniProt Q9NQU5); experiment: PAK6 (h) Millipore kinase activity assay; conditions: Compound concentration 1.0 uM
Mus musculus = species on record: Mus musculus; experiment: Inhibition of Phorbol Ester at 10 µM in the Eurofins-Panlabs radioligand binding assay (Eurofins_assay_264500); design: ligand concentration 3 nM; conditions: Compound concentration 10.0 uM
[33] = target: Muscle, skeletal receptor tyrosine-protein kinase (Homo sapiens) (UniProt O15146); experiment: MuSK (h) Millipore kinase activity assay; conditions: Compound concentration 1.0 uM
Chain of Muscle, skeletal receptor tyrosine-protein kinase (Homo sapiens) (O15146 whole entry): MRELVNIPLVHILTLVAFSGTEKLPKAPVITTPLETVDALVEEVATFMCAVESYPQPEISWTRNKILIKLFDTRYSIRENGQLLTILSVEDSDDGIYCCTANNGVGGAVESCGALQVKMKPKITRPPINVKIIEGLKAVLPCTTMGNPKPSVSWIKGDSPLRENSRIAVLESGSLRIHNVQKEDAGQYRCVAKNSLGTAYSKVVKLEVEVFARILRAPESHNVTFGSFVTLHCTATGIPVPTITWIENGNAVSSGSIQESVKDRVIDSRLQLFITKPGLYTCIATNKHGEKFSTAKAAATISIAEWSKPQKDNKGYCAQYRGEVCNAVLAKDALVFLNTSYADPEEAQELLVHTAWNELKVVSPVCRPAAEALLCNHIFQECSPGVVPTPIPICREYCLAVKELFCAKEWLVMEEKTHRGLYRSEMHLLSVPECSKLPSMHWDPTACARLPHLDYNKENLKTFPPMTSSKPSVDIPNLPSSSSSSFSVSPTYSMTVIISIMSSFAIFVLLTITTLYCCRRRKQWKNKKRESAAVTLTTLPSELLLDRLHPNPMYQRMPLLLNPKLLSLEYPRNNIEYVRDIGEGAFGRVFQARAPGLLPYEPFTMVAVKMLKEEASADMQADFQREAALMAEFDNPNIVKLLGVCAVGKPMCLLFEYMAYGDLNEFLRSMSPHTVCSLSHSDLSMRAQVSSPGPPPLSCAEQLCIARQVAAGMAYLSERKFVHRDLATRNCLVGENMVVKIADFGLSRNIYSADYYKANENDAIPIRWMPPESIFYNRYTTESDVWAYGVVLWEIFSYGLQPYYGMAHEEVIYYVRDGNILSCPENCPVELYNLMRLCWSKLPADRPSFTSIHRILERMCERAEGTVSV

[34] = target: Macrophage-stimulating protein receptor (Homo sapiens) (UniProt Q04912); experiment: Ron (h) Millipore kinase activity assay; conditions: Compound concentration 1.0 uM
[35] = target: Dual specificity mitogen-activated protein kinase kinase 7 (Homo sapiens) (UniProt O14733); experiment: MKK7beta (h) Millipore kinase activity assay; conditions: Compound concentration 1.0 uM
Chain of Dual specificity mitogen-activated protein kinase kinase 7 (Homo sapiens) (O14733 whole entry): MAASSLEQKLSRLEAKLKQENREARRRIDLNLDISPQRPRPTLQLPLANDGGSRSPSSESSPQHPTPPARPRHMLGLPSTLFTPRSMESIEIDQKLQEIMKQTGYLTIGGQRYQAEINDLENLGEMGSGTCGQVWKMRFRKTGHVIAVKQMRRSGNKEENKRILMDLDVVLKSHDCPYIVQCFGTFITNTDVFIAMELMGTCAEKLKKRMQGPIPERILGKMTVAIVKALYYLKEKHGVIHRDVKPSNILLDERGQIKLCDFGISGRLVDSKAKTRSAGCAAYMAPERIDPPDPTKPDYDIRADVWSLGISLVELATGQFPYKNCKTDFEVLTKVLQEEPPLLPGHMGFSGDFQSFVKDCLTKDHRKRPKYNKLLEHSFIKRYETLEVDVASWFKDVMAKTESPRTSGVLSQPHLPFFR

[36] = target: Protein-tyrosine kinase 6 (Homo sapiens) (UniProt Q13882); experiment: BRK (h) Millipore kinase activity assay; conditions: Compound concentration 1.0 uM
[37] = target: GABA-A receptor; anion channel (Rattus norvegicus) (UniProt O09028+P15431+P18506+P18508+P19969+P20236+P23574+P23576+P28471+P28473+P30191+P62813+P63079+P63138+Q91ZM7+Q9ES14); conditions: Compound concentration 10.0 uM
[38] = target: Serine/threonine-protein kinase 24 (Homo sapiens) (UniProt Q9Y6E0); experiment: MST3 (h) Millipore kinase activity assay; conditions: Compound concentration 1.0 uM
[39] = target: Mitogen-activated protein kinase 13 (Homo sapiens) (UniProt O15264); experiment: SAPK4 (h) Millipore kinase activity assay; conditions: Compound concentration 1.0 uM
[40] = target: Tyrosine-protein kinase ABL1 (Homo sapiens) (UniProt P00519); experiment: Abl (h) Millipore kinase activity assay; conditions: Compound concentration 1.0 uM
[41] = target: Casein kinase I isoform gamma-2 (Homo sapiens) (UniProt P78368); experiment: CK1gamma2 (h) Millipore kinase activity assay; conditions: Compound concentration 1.0 uM
[42] = target: Serine/threonine-protein kinase Chk2 (Homo sapiens) (UniProt O96017); experiment: CHK2 (h) Millipore kinase activity assay; conditions: Compound concentration 1.0 uM
[43] = target: Mitogen-activated protein kinase 8 (Homo sapiens) (UniProt P45983); experiment: JNK1alpha1 (h) Millipore kinase activity assay; conditions: Compound concentration 1.0 uM
Chain of Mitogen-activated protein kinase 8 (Homo sapiens) (P45983 whole entry): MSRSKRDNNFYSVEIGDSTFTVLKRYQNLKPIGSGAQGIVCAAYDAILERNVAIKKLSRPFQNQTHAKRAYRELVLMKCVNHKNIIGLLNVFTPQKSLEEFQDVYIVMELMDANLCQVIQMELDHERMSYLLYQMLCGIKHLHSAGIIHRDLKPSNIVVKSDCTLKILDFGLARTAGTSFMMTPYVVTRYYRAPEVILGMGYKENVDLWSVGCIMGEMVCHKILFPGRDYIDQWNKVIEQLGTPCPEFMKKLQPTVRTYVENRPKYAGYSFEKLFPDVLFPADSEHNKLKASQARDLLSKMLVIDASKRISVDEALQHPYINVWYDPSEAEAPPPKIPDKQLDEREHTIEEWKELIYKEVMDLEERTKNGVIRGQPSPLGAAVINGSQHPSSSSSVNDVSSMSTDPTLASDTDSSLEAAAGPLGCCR

CC1=C(C#N)[C@@H](c2ccc3[nH]nc(C)c3c2)C(C#N)=C(c2ccc(Cl)cc2)N1 [BAY-827]
inactive: residual activity [1] 96.8% | residual activity [2] 100% | residual activity [3] 97.8% | residual activity [4] 100% | residual activity [5] 100% | residual activity [6] 100% | residual activity [7] 86.8% | residual activity [8] 100% | residual activity [9] 100% | residual activity [10] 100% | residual activity [11] 100% | residual activity [12] 93.7% | residual activity [13] 90% | residual activity [14] 100% | residual activity [15] 100% | residual activity [16] 91.1% | residual activity [17] 100% | residual activity [18] 68.8% | residual activity [19] 82.8% | residual activity [20] 81.5% | residual activity [21] 82.1% | residual activity [22] 100% | residual activity [23] 100% | residual activity [24] 89.5% | residual activity [25] 96.4% | residual activity [26] 100% | residual activity [27] 100% | residual activity [28] 100% | residual activity [29] 100% | residual activity [30] 81.4% | residual activity [31] 98.5%

CC1=C(C#N)C(c2ccc3[nH]nc(C)c3c2)C(C#N)=C(C)N1 [BAY-474]
inactive: inhibition [32] 7% | inhibition (Mus musculus) 4% | inhibition [33] 19% | inhibition [34] 8% | inhibition [35] 13% | inhibition [36] -7% | inhibition [37] -2% | inhibition [38] 10% | inhibition [39] 10% | inhibition [40] -2% | inhibition [41] 19% | inhibition [42] 4% | inhibition [43] -8%

Reference: ChEMBL document CHEMBL4507263, “Data for DCP probe BAY-474” (2021)
